Read-outs that look alike come from different tables or passages of the source.
What was measured:
[1] = target: T1, human NaPi-IIb (Homo sapiens, UniProt O95436); assay: Inhibitory effect on 33PO4 uptake into human NaPi-IIb-expressing CHO cells; assay type: cell-based
T1 construct: expressed in transfected cells
T1 sequence (O95436 1-690): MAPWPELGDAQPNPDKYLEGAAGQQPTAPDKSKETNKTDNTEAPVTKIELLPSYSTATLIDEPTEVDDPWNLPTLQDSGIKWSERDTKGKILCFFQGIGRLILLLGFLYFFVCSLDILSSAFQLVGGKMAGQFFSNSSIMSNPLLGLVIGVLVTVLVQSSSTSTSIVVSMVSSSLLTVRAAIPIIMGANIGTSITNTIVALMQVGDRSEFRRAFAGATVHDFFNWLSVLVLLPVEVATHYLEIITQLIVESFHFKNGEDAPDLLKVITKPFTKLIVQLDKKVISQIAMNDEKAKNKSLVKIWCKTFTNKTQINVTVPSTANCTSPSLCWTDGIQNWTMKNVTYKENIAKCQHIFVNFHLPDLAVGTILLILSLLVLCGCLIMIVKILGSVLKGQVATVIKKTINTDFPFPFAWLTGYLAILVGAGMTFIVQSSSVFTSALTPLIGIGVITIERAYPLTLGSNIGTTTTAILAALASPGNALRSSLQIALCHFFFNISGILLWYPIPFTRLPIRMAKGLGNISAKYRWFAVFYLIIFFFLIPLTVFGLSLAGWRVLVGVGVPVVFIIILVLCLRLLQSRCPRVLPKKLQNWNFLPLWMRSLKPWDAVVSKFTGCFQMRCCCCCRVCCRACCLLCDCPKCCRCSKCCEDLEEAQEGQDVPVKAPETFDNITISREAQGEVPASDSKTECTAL
Procedure, shortened: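 Stable human NaPi-IIb CHO line (G418-selected), plated and cultured overnight; ³³PO4 added in buffer A and uptake run at room temperature. Cells washed with ice-cold buffer A, then uptake counted by liquid scintillation.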

[2] = target: T2, human PiT-2 (Homo sapiens, UniProt Q08357); assay: Inhibitory effect on 33PO4 uptake into human PiT-2-expressing CHO cells; assay type: cell-based; conditions: pH 6.5, read-out: IC50 against 33PO4 uptake into human PiT-2-expressing cells
T2 construct: expressed in transfected cells; host or cells: CHO cells
T2 sequence (Q08357 1-652): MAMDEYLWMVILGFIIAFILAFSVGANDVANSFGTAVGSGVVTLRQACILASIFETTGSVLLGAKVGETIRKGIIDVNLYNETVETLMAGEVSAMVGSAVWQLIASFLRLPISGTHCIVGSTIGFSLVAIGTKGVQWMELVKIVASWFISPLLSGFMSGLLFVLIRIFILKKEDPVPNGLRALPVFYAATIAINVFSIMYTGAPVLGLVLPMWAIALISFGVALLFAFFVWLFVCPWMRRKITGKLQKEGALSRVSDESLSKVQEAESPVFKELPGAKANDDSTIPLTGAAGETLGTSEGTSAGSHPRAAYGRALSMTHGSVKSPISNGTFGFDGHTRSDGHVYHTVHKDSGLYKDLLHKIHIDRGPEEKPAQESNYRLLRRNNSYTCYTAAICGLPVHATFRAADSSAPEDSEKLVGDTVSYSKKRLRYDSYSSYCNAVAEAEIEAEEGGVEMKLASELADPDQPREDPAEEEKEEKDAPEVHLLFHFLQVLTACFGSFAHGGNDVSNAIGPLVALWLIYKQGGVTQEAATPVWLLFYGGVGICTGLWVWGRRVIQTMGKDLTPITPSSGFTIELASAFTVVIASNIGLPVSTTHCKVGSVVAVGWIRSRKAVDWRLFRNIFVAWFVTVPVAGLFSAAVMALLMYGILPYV
Method: Test Example 4: Inhibitory Effect on ^33PO4 Uptake into Human PiT-2-Expressing Cell
(§1) CHO cells were transfected with human PiT-2 expression plasmids or empty vectors to prepare human PiT-2-expressing cells and empty vector-expressing cells. The human PiT-2-expressing cells or the empty vector-expressing cells were inoculated to a 96-well plate and incubated overnight in a CO2 incubator. […] After a given time, a 1/20 volume of buffer A containing ^33PO4 was added thereto and reacted at room temperature. After washing with ice-cold buffer A, a liquid scintillator was added to each reaction mixture, and the amount of ^33PO4 uptake was measured using TopCount. The rate of inhibition was determined according to the following expression: Rate (%) of inhibition=(1−(Amount of ^33PO4 uptake in the compound-supplemented well containing the human PiT-2-expressing cells−Amount of ^33PO4 uptake in the compound-supplemented well containing the empty vector-expressing cells)/(Amount of ^33PO4 uptake in the DMSO-supplemented well containing the human PiT-2-expressing cells −Amount of ^33PO4 uptake in the DMSO-supplemented well containing the empty vector-expressing cells))×100

[3] = tested on: adenine-induced renal failure rat; assay: Suppressive effect on rise in serum phosphorus concentration of adenine-induced renal failure rat (0.1% in feed, 3 days); assay type: in vivo; conditions: feed or water, 72 h, 0.1% of mass concentration in feed, read-out: Rate of inhibition (%) (suppression of a rise in serum phosphorus concentration)
Text: Test Example 5: Suppressive Effect on Rise in Serum Phosphorus Concentration of Adenine-Induced Renal Failure Rat
Adenine was forcedly administered orally to each Wistar male rat (7-8 weeks old) to impair renal functions and thereby prepare a hyperphosphatemia model (Katsumata K, Kusano K, Hirata M, Tsunemi K, Nagano N, Burke S K, Fukushima N. Sevelamer hydrochloride prevents ectopic calcification and renal osteodystrophy in chronic renal failure rats. Kidney Int. 2003 August; 64 (2): 441-50). Each test compound was mixed at a ratio of 0.1% of mass concentration with feed. The animal was fed with a given amount of the feed for 3 days. A group given feed non-supplemented with a test compound was used as a reference pathological group, and an adenine-unadministered group given feed non-supplemented with a test compound was used as a normal group. […] Serum phosphorus concentrations were measured by the Fiske-Subbarow method. The rate of suppression of a rise in serum phosphorus concentration was determined according to the following expression: Rate (%) of suppression of a rise in serum phosphorus concentration=(1−[(Serum phosphorus concentration of the test compound-treated pathological group)−(Serum phosphorus concentration of the normal group)]/[(Serum phosphorus concentration of the reference pathological group)−(Serum phosphorus concentration of the normal group)])×100

[4] = target: T3, human PiT-1 (Homo sapiens, UniProt Q8WUM9); assay: Inhibitory effect on 33PO4 uptake into human PiT-1-expressing CHO cells; assay type: cell-based; conditions: compound 0.24, 1.2, 6 or 30 μM, pH 6.5, read-out: IC50 against 33PO4 uptake into human PiT-1-expressing cells
T3 construct: expressed in transfected cells; host or cells: CHO cells
T3 sequence (Q8WUM9 1-679): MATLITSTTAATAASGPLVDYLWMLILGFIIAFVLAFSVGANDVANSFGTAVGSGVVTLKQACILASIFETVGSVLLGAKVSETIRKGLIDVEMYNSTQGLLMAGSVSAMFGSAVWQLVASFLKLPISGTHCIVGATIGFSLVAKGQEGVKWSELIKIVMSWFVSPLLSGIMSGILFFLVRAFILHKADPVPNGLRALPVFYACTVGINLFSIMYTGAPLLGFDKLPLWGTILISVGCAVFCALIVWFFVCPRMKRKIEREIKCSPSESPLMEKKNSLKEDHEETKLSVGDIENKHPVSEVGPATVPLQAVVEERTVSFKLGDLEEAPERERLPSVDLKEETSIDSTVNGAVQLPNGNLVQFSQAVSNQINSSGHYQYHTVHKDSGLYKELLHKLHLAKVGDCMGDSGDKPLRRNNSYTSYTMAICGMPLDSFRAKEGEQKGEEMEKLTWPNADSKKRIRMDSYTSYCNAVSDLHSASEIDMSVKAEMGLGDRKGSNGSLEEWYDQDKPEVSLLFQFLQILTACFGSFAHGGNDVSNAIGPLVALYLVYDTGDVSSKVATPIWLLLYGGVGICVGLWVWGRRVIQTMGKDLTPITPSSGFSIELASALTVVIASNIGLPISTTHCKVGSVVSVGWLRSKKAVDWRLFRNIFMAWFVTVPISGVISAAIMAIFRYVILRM
Method: Test Example 3: Inhibitory Effect on ^33PO4 Uptake into Human PiT-1-Expressing Cell
as §1, with “PiT-1” for “PiT-2”, “PiT-1-expressing” for “PiT-2-expressing”

## C[C@]12CCCN1N(Cc1cccc(F)c1F)C(=O)C(C(=O)Nc1ccc(C(F)(F)F)cc1-c1cc(C(F)(F)F)ncn1)=C2O [Example 21, (4aR)-1-[(2,3-Difluoro-phenyl)methyl]-4-hydroxy-4a-methyl-2-oxo-N-[4-(trifluoromethyl)-2-[6-(trifluoromethyl)pyrimidin-4-yl]phenyl]-6,7-dihydro-5H-pyrrolo [1,2-b]pyridazine-3-carboxamide]
[1]; read-out: IC50
  IC50: 2.8 µM
[2]
  IC50: 3.6 µM
[3]
  inhibition in vivo at 0.1 %, 0.1 % in feed: 24%

## C[C@]12CCCN1N(Cc1ccc(OCCN3CCOCC3)c(F)c1F)C(=O)C(C(=O)Nc1ccc(C(F)(F)F)cc1-c1ccnc(C#N)c1)=C2O [Example 52, (4aR)-N-[2-(2-Cyanopyridin-4-yl)-4-(trifluoromethyl)phenyl]-1-[[2,3-difluoro-4-(2-morpholin-4-ylethoxy)phenyl]methyl]-4-hydroxy-4a-methyl-2-oxo-6,7-dihydro-5H-pyrrolo[1,2-b]pyridazine-3-carboxamide]
[1]; read-out: IC50
  IC50: 16.8 µM
[3]
  inhibition in vivo at 0.1 %, 0.1 % in feed: 20%

## COCCN(C)CCOc1ccc(CN2C(=O)C(C(=O)Nc3ccc(C(F)(F)F)cc3-c3ncnc(C(F)(F)F)c3C)=C(O)C3(CCCC3)N2C)c(F)c1F [Example 416]
[1]; read-out: IC50 against 33PO4 uptake into human NaPi-IIb-expressing cells
  IC50: 5.8 µM
[4]
  IC50: 0.9 µM
[2]
  IC50: 1.4 µM
